Test results taken from PubChem BioAssay (NCI).
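Five compound concentrations were applied to cells in 96-well plates for 48 hours; endpoints were derived by simple linear interpolation of the resulting dose-response curve. Here, GI50 denotes the concentration required for 50% inhibition of growth. TGI marks complete inhibition of growth.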

Assays:
Test in all cases: NCI tumour cell line growth inhibition, 48 h
ACHN renal = test system: ACHN renal
SF-268 CNS = test system: SF-268 CNS
HOP-62 NSCLC = test system: HOP-62 NSCLC
RPMI-8226 leukemia = test system: RPMI-8226 leukemia
HL-60(TB) leukemia = test system: HL-60(TB) leukemia
IGROV1 ovarian = test system: IGROV1 ovarian
SF-539 CNS = test system: SF-539 CNS
LOX IMVI melanoma = test system: LOX IMVI melanoma
NCI/ADR-RES ovarian = test system: NCI/ADR-RES ovarian
KM12 colon = test system: KM12 colon

`O=C1c2cc3c(cc2-c2c1c1cc(Cl)c(Cl)cc1c(=O)n2C[C@H](O)CO)OCO3` was tested. Which GI50 (ACHN renal) did it give?
Its GI50 is under 10 nM.

What about the TGI (ACHN renal) of the same compound?
Its TGI is 12.8 nM.

What about the GI50 (SF-268 CNS) of the same compound?
The GI50 was under 10 nM.

And the TGI (SF-268 CNS)?
Its TGI is 2700 nM.

And the GI50 (HOP-62 NSCLC)?
Its GI50 is under 10 nM.

What about the TGI (HOP-62 NSCLC) of the same compound?
The TGI was 32.6 nM.

What about the GI50 (RPMI-8226 leukemia) of the same compound?
Its GI50 is under 10 nM.

And the TGI (RPMI-8226 leukemia)?
Its TGI is 188 nM.

And the GI50 (HL-60(TB) leukemia)?
The GI50 was under 10 nM.

What about the TGI (HL-60(TB) leukemia) of the same compound?
The TGI was 10500 nM.

And the GI50 (IGROV1 ovarian)?
The GI50 was 21.9 nM.

What about the TGI (IGROV1 ovarian) of the same compound?
The TGI was 2080 nM.

And the GI50 (SF-539 CNS)?
The GI50 was under 10 nM.

What about the TGI (SF-539 CNS) of the same compound?
The TGI was 17.5 nM.

And the GI50 (LOX IMVI melanoma)?
The GI50 was under 10 nM.

What about the TGI (LOX IMVI melanoma) of the same compound?
The TGI was 11.7 nM.

What about the GI50 (NCI/ADR-RES ovarian) of the same compound?
Its GI50 is under 10 nM.

What about the TGI (NCI/ADR-RES ovarian) of the same compound?
Its TGI is 18.4 nM.

Which results are given for `C#Cc1nc(Nc2cc(C)[nH]n2)c2ccccc2n1`?
GI50 (KM12 colon): 232 nM; TGI (KM12 colon): 503 nM; GI50 (ACHN renal): 257 nM; TGI (ACHN renal): 1710 nM; GI50 (SF-268 CNS): 313 nM; TGI (SF-268 CNS): 1110 nM; GI50 (RPMI-8226 leukemia): 83.5 nM; TGI (RPMI-8226 leukemia): 460 nM; GI50 (HL-60(TB) leukemia): 265 nM; TGI (HL-60(TB) leukemia): 887 nM; GI50 (IGROV1 ovarian): 220 nM; TGI (IGROV1 ovarian): 563 nM; GI50 (SF-539 CNS): 189 nM; TGI (SF-539 CNS): 451 nM; GI50 (LOX IMVI melanoma): 151 nM; TGI (LOX IMVI melanoma): 308 nM; GI50 (NCI/ADR-RES ovarian): 402 nM; TGI (NCI/ADR-RES ovarian): > 100000 nM

Which TGI (KM12 colon) does the source give for `C[Si](C)(C)/C(I)=C/CO` here?
Its TGI is 60800 nM.

And the TGI (ACHN renal)?
The TGI was 46400 nM.

What about the TGI (SF-268 CNS) of the same compound?
Its TGI is 94100 nM.

And the TGI (RPMI-8226 leukemia)?
The TGI was 40700 nM.

What about the TGI (IGROV1 ovarian) of the same compound?
Its TGI is over 100000 nM.

And the TGI (SF-539 CNS)?
Its TGI is 39900 nM.

What about the TGI (LOX IMVI melanoma) of the same compound?
The TGI was 42100 nM.

How did the TGI (KM12 colon) turn out when `Cc1ccc(NC(=O)CCc2nnc(N)o2)cc1` was run?
Its TGI is over 100000 nM.

And the TGI (ACHN renal)?
Its TGI is over 100000 nM.

And the TGI (SF-268 CNS)?
The TGI was over 100000 nM.

And the TGI (HOP-62 NSCLC)?
The TGI was over 100000 nM.

What about the TGI (RPMI-8226 leukemia) of the same compound?
Its TGI is over 100000 nM.

And the TGI (HL-60(TB) leukemia)?
The TGI was over 91700 nM.

What about the TGI (IGROV1 ovarian) of the same compound?
The TGI was over 100000 nM.

And the TGI (SF-539 CNS)?
The TGI was over 100000 nM.

What about the TGI (LOX IMVI melanoma) of the same compound?
Its TGI is over 100000 nM.

`C[C@H](Nc1cc(Cl)nc2c1cnn2[C@@H]1O[C@H](COP(=O)(O)CP(=O)(O)O)[C@@H](O)[C@H]1O)c1ccccc1F` was tested. Which GI50 (KM12 colon) did it give?
The GI50 was over 100000 nM.

And the TGI (KM12 colon)?
The TGI was over 100000 nM.

And the GI50 (ACHN renal)?
Its GI50 is over 100000 nM.

And the TGI (ACHN renal)?
The TGI was over 100000 nM.

And the GI50 (SF-268 CNS)?
Its GI50 is over 100000 nM.

What about the TGI (SF-268 CNS) of the same compound?
The TGI was over 100000 nM.

What about the GI50 (HOP-62 NSCLC) of the same compound?
Its GI50 is over 100000 nM.

And the TGI (HOP-62 NSCLC)?
The TGI was over 100000 nM.

And the GI50 (HL-60(TB) leukemia)?
The GI50 was over 100000 nM.

And the TGI (HL-60(TB) leukemia)?
The TGI was over 100000 nM.

What about the GI50 (IGROV1 ovarian) of the same compound?
Its GI50 is over 100000 nM.

What about the TGI (IGROV1 ovarian) of the same compound?
The TGI was over 100000 nM.

What about the GI50 (SF-539 CNS) of the same compound?
The GI50 was over 100000 nM.

And the TGI (SF-539 CNS)?
The TGI was over 100000 nM.

And the GI50 (LOX IMVI melanoma)?
Its GI50 is over 100000 nM.

What about the TGI (LOX IMVI melanoma) of the same compound?
Its TGI is over 100000 nM.

What about the GI50 (NCI/ADR-RES ovarian) of the same compound?
The GI50 was over 100000 nM.

What about the TGI (NCI/ADR-RES ovarian) of the same compound?
Its TGI is over 100000 nM.

`Cc1cc(N(CCCNc2ccnc3cc(Cl)ccc23)Cc2ccc3c(c2)OCO3)nc(N2CCOCC2)n1` was tested. Which GI50 (KM12 colon) did it give?
The GI50 was 340 nM.

What about the TGI (KM12 colon) of the same compound?
The TGI was 25700 nM.

What about the GI50 (SF-268 CNS) of the same compound?
Its GI50 is 304 nM.

And the TGI (SF-268 CNS)?
Its TGI is 24700 nM.

What about the GI50 (RPMI-8226 leukemia) of the same compound?
The GI50 was 330 nM.

And the TGI (RPMI-8226 leukemia)?
Its TGI is 2150 nM.

What about the GI50 (IGROV1 ovarian) of the same compound?
The GI50 was 338 nM.

What about the TGI (IGROV1 ovarian) of the same compound?
Its TGI is 3470 nM.

And the GI50 (SF-539 CNS)?
The GI50 was 251 nM.

And the TGI (SF-539 CNS)?
Its TGI is 660 nM.

And the GI50 (LOX IMVI melanoma)?
Its GI50 is 216 nM.

What about the TGI (LOX IMVI melanoma) of the same compound?
Its TGI is 534 nM.

And the GI50 (NCI/ADR-RES ovarian)?
The GI50 was 692 nM.

What about the TGI (NCI/ADR-RES ovarian) of the same compound?
Its TGI is 23000 nM.

How did the TGI (ACHN renal) turn out when `CCOC(=O)c1ccc(N=Nc2cc(C(=O)OCC)ccc2O)cc1` was run?
Its TGI is over 100000 nM.

What about the TGI (SF-268 CNS) of the same compound?
The TGI was over 100000 nM.

What about the TGI (HOP-62 NSCLC) of the same compound?
The TGI was over 100000 nM.

What about the TGI (RPMI-8226 leukemia) of the same compound?
The TGI was over 100000 nM.

And the TGI (HL-60(TB) leukemia)?
Its TGI is over 100000 nM.

What about the TGI (IGROV1 ovarian) of the same compound?
The TGI was over 100000 nM.

And the TGI (SF-539 CNS)?
Its TGI is over 100000 nM.

And the TGI (LOX IMVI melanoma)?
The TGI was over 100000 nM.

For `O=C(O)c1ccc(C(=O)O)c2c(C(=O)O)ccc(C(=O)O)c12`, which TGI (KM12 colon) is on record?
Its TGI is over 100000 nM.

What about the TGI (ACHN renal) of the same compound?
Its TGI is over 100000 nM.

And the TGI (SF-268 CNS)?
Its TGI is over 100000 nM.

And the TGI (HOP-62 NSCLC)?
The TGI was over 100000 nM.

And the TGI (RPMI-8226 leukemia)?
The TGI was over 100000 nM.

And the TGI (IGROV1 ovarian)?
The TGI was over 100000 nM.

What about the TGI (SF-539 CNS) of the same compound?
Its TGI is over 100000 nM.

And the TGI (LOX IMVI melanoma)?
The TGI was over 100000 nM.

And the TGI (NCI/ADR-RES ovarian)?
Its TGI is over 100000 nM.
